{"source": "paper PMC13538172", "about": "“Zonisamide nanodiamonds for brain targeting: A comprehensive study utilising in silico, in vitro, in vivo, and molecular investigation for successful nose-to-brain delivery for epilepsy management” (Drug Delivery and Translational Research, 2025)", "key": {"[1]": {"system": "neurofilament light polypeptide (NEFL)", "assay": "Serum NEFL by ELISA in TLE rats", "format": "in vivo", "conditions": "compared to the TLE control rats; intranasal, 7 days", "description": "(§1) Temporal lobe epilepsy (TLE) was induced in rats using the pilocarpine model according to the method of Arshad et al.. Prior to the experiment, rats were housed in plastic cages at October University for Modern Science and Arts under controlled environmental conditions (temperatures of 25°±3°C and 50% humidity) with free access to water and softened standard pellet chow. The rats were injected with pilocarpine (300 mg/kg; i.p.) to induce status epilepticus (SE). Atropine (1 mg/kg; i.p.) was injected 30 minutes before pilocarpine injection to antagonize the peripheral muscarinic activity. SE was defined using the modified Racine scale by observing seizure severity categorized as stages 4 and 5. […] The SE seizures were left to last for 3 hours to induce hippocampus damage, after which diazepam (10 mg/kg; i.p.) was injected to attenuate the seizures. Lubricant ophthalmic gel was applied with a cotton swab to each eye to prevent the corneas from drying out during the seizures. The rats were hydrated with sterile Ringer's lactate injections (1 mL, i.p.) for 3 days post-SE induction. […]\n(§2) The serum levels of neuron-specific enolase (NSE), matrix metallopeptidase-9 (MMP-9), neurofilament light polypeptide (NEFL), and brain-derived neurotrophic factor (BDNF) were measured by ELISA technique using the following standard kits CAT no. […]"}, "[2]": {"system": "matrix metallopeptidase-9 (MMP-9)", "assay": "Serum MMP-9 by ELISA in TLE rats", "format": "in vivo", "conditions": "compared to the TLE control rats; intranasal, 7 days", "description": "as §1, §2"}, "[3]": {"system": "brain-derived neurotrophic factor (BDNF)", "assay": "Serum BDNF by ELISA in TLE rats", "format": "in vivo", "conditions": "TLE control 22.1 ± 1.7, normal group 76.8 ± 6.1", "description": "as §1, §2"}, "[4]": {"design": "method as in PMID 10837713", "conditions": "following systemic absorption; cited from earlier work"}, "[5]": {"system": "LncRNA PVT-1", "assay": "Hippocampal LncRNA PVT-1 expression by quantitative RT-PCR in TLE rats", "format": "in vivo", "conditions": "relative quantitation 2-∆∆Ct; TLE control 5.7 folds of normal rats", "description": "Temporal lobe epilepsy (TLE) was induced in rats using the pilocarpine model according to the method of […] et al.. Prior to the experiment, rats were housed in plastic cages at October University for Modern Science and Arts under controlled environmental conditions (temperatures of 25°±3°C and 50% humidity) with free access to water and softened standard pellet chow. The rats were injected with pilocarpine (300 mg/kg; i.p.) to induce status epilepticus (SE). Atropine (1 mg/kg; i.p.) was injected 30 minutes before pilocarpine injection to antagonize the peripheral muscarinic activity. SE was defined using the modified Racine scale by observing seizure severity categorized as stages 4 and 5. […] For quantitative RT-PCR analysis of miR-199, Sirtuin 1 (Sirt-1) and long non-coding RNA of plasmacytoma variant translocation1 (LncRNA PVT-1), RNA was isolated from the brain hippocampus tissue with direct-zol RNA Miniprep Plus (CAT no. R2072) and reverse-transcribed into cDNA with the reverse transcriptase (CAT no. 12594100) according to the manufacturer instructions. […] Quantitative reverse transcriptase PCR was performed using a Power SYBR Green PCR Master Mix (CFX96 Instrument; Bio-Rad, USA). The relative quantitation (RQ) of each target gene is quantified according to the 2-ΔΔCt method calculation."}}, "data": [{"smiles": "NS(=O)(=O)Cc1noc2ccccc12", "note": "[ZNS, Zonisamide]", "values": [{"measurement": "decrease in serum level of NEFL", "setting": "[1]", "result": 44.6, "unit": "%"}, {"measurement": "decrease in serum level of MMP-9", "setting": "[2]", "result": 40.1, "unit": "%"}, {"measurement": "serum level of BDNF", "setting": "[3]", "result": "47.45 ± 1.9", "unit": "pg/mL"}, {"measurement": "Oldendorf Brain Uptake Index", "setting": "[4]", "result": 28, "unit": "%"}, {"measurement": "hippocampal level of LncRNA-PVT1", "setting": "[5]", "result": 3.4, "unit": "folds"}]}]}
